This note sets out measurements from patent US9656981B2, “Peripherally-acting cannabinoid receptor agonists for chronic pain” (The Regents of the University of California, priority 2012, dated 2017).

For one series, the system named is rats. Briefly: Rotarod test of the tetrad. The format is in vivo, rat. The method, then:
Rats were tested for motor function and the ataxic effects of novel drugs as described previously^151-153. To determine drug effects on motor coordination, rats are trained 72 h before the test (3 sessions 24 h apart) to remain for at least 180 s on a rotarod revolving at an acceleration of 4-40 revs over 5 min). Rats are tested immediately before vehicle or drug injections and tested again at 2, 6, 24 and 48 hrs after injection. The time for which the rats are able to remain on the rotarod is recorded up to a cut-off of 5 min.
On the technique in general: The rotarod test checks motor coordination on a turning rod.

Series [1] in a line: S9 fraction stability assay. The format is in vitro ADME. The conditions noted are these: 30 min; rat liver S9, 10 μM. As to the method:
Compounds are incubated at 10 μM in rat (male Sprague Dawley) liver S9 at 37° C. Each compound is prepared in ethanol at a concentration of 1 mM. An assay mixture containing S9 (1 mg protein/mL final concentration) and an NADPH regenerating system (NADP [1 mM final], glucose 6-phosphate [5 mM final] and glucose 6-phosphate dehydrogenase [1 U/mL final]) in a buffer consisting of 50 mM KPO4 phosphate buffer, pH 7.4 with 3 mM MgCl2 is prepared and preincubated at 37° C. for 5 min. A 10 μL volume of the 1 mM solution is added to 990 μL of assay mixture in a glass test tube @ 37° C. to initiate the assay. Samples (50 μL) are removed at 0, 15, 30, 60 and 120 min and immediately extracted with 3 volumes (150 μL) of methanol, centrifuged to pellet protein and supernatants transferred to LC/MS vials for analysis.

Each structure is given as a SMILES string. Entries after “also recorded” stand apart in the source; their conditions may differ.

Regarding `CCCc1ccc(/C=C2\C=C(CCN3CCOCC3)c3ccccc32)c2ccccc12` [Compound 9, 4-{2-[(1E)-1-[(4-propylnaphthalen-1-yl)methylidene]-1H-inden-3-yl]ethyl} morpholine], the “effect in the rotarod assay” value in the series with rats (0.3 mg/kg, intraperitoneal, listed as 13339-145-35) is recorded as “no effect; also recorded: complete lack of effects”. For the same compound, the “Rotarod % change from pre-drug (0.3 mg/kg) at 2-3 hr” value in the series on rats (2-3 hr) is 0%. Besides, the “S9% remaining @ xy min” value in series [1] was 39%.
